# Results from US10065950B2, “Substituted thiazoles as HIV integrase inhibitors” (Japan Tobacco Inc., priority 2010, dated 2018).
# Target: HIV-1 pNL4-3 integrase (Human immunodeficiency virus type 1 group M subtype B (isolate NY5) (HIV-1), UniProt P12497)
# Experiment: Determination of enzyme (HIV integrase) inhibitory activity
# Assay type: biochemical
# Settings: calculated from inhibition rate (fluorescence)
# Experimental: The following explains evaluation methods of the HIV integrase inhibitory activity of the compound of the present invention.
# A full-length gene sequence (Accession No.: M19921) of HIV-1 pNL4-3 integrase was inserted into restriction enzyme Nde I and Xho I sites of plasmid pET21a(+) (manufactured by Novagen) to construct an integrase expression vector pET21a-IN-Wild type.
# Escherichia coli recombinant BL21(DE3) transformed with plasmid pET21a-IN-Wild type obtained in (i) was shake cultured at 30° C. in a liquid medium containing ampicillin. When the culture reached the logarithmic growth phase, isopropyl-β-D-thiogalactopyranoside was added to promote expression of integrase gene. The culture was continued for 5 hr to promote accumulation of the integrase protein. The recombinant E. coli was collected in pellets by centrifugal separation and preserved at −80° C.
# This Escherichia coli was suspended in Lysis buffer (50 mM Tris-HCl (pH 7.6), 10 mM MgCl2, 5 mM DTT), and disrupted by repeating treatments of pressurization and depressurization, and insoluble fraction was collected by centrifugation at 4° C., 18,000 rpm for 60 min. This was suspended in Lysis buffer containing a protease inhibitor, […] and 10 mM CHAPS were added, and the mixture was stirred at 4° C. for 30 min. Water-soluble fraction was collected by centrifugation at 4° C., 9,000 rpm for 30 min. The obtained fraction was diluted with a column buffer (50 mM Tris-HCl (pH 7.6), 1 mM DTT, 10% Glycerol, 10 mM CHAPS) to 5-fold, and the mixture was applied to heparin column (HiPrep 16/10 Heparin FF column: manufactured by GE Healthcare Bio-Sciences). Using a column buffer containing 1M NaCl, a protein was eluted with 0-1M NaCl concentration gradient, and an eluted fraction containing an integrase protein was collected. The obtained fraction was diluted 5-fold with a column buffer (50 mM Tris-HCl (pH 7.6), 1 mM DTT, 10% Glycerol, 10 mM CHAPS), and the mixture was applied to cation exchange column (Mono-S column: manufactured by GE Healthcare Bio-Sciences). Using a column buffer containing 1M NaCl, a protein was eluted with 0-1M NaCl concentration gradient, and an eluted fraction containing an integrase protein was collected. The obtained fractions of the integrase protein were collected, and preserved at −80° C.
# The following DNA synthesized by FASMAC was dissolved in TE buffer (10 mM Tris-hydrochloric acid (pH 8.0), 1 mM EDTA) and mixed with donor DNA, target DNA, and each complementary strand (+ and − strands) to 1 μM. The mixture was heated at 95° C. for 5 min, 80° C. for 10 min, 70° C. for 10 min, 60° C. for 10 min, 50° C. for 10 min and 40° C. for 10 min and kept at 25° C. to give a double stranded DNA, which was used for the test.
# Donor DNA (+strand having biotin attached to the 5′ terminal)
# Target DNA (+, − strands both having digoxigenin attached to the 3′ terminal)
# The donor DNA was diluted with TE buffer to 20 nM, of which 50 μL was added to each well of streptavidin-coated black plate (manufactured by PIAS Corporation) and allowed to adsorb at 37° C. for 20 min. The plate was washed with phosphate buffer (Dulbecco's PBS, Sanko Junyaku Co., Ltd.) containing 0.1% Tween 20 and phosphate buffer. Then, an enzyme reaction mixture (70 μL), a test substance (10 μL) diluted with the enzyme reaction mixture and 0.75 μM integrase protein (10 μL) were added to each well and the mixture was reacted at 37° C. for 60 min. composition of enzyme reaction mixture: 30 mM MOPS (3-morpholinopropanesulfonic acid), 5 mM magnesium chloride, 3 mM DTT (dithiothreitol), 0.1 mg/mL BSA (bovine serum albumin), 5% glycerol, 10% DMSO (dimethyl sulfoxide), 0.01% Tween 20.
# Then, 25 nM target DNA (10 μL) was added, and the mixture was reacted at 37° C. for 20 min and washed with phosphate buffer containing 0.1% Tween 20 to stop the reaction. […]
row,SMILES,IC50 [nM]
1,CC(C)N1C[C@](C)(C(=O)N2CCC2)n2cc(-c3nnc(Cc4ccc(F)cc4)s3)c(=O)c(O)c2C1=O [Example 2],13
2,CCC(=O)N(C)CC1(C)CN(C(C)C)C(=O)c2c(O)c(=O)c(-c3ncc(Cc4ccc(F)cc4F)s3)cn21 (centres unmarked) [Example 7],13
3,CC(C)N1CC2(CCOCC2)n2cc(-c3nnc(Cc4ccc(F)cc4F)s3)c(=O)c(O)c2C1=O [Example 8],8.9
4,COCC1CN(C(C)C)C(=O)c2c(O)c(=O)c(-c3nnc(Cc4ccc(F)cc4F)s3)cn21 (centres unmarked) [Example 18],8.2
5,CC(C)N1CC(CO)n2cc(-c3ncc(Cc4ccc(F)cc4F)s3)c(=O)c(O)c2C1=O (centres unmarked) [Example 19],8.1
6,CC(C)N1CC(C)(CO)n2cc(-c3ncc(Cc4ccc(F)cc4F)s3)c(=O)c(O)c2C1=O (centres unmarked) [Example 20],17
7,CC(C)N1CC(CC(=O)N(C)C)n2cc(-c3ncc(Cc4ccc(F)cc4F)s3)c(=O)c(O)c2C1=O (centres unmarked) [Example 21],9.4
8,CNC(=O)C1CN(C(C)C)C(=O)c2c(O)c(=O)c(-c3ncc(Cc4ccc(F)cc4F)s3)cn21 (centres unmarked) [Example 22],7
9,CC(C)N1CC(C(=O)O)n2cc(-c3ncc(Cc4ccc(F)cc4F)s3)c(=O)c(O)c2C1=O (centres unmarked) [Example 23],12
10,CC(C)N1CC(C)(C(=O)O)n2cc(-c3ncc(Cc4ccc(F)cc4F)s3)c(=O)c(O)c2C1=O (centres unmarked) [Example 24],23
11,CCNC(=O)C1CN(C(C)C)C(=O)c2c(O)c(=O)c(-c3ncc(Cc4ccc(F)cc4F)s3)cn21 (centres unmarked) [Example 25],11
12,CC(C)N1CC(C(=O)N(C)C)n2cc(-c3ncc(Cc4ccc(F)cc4F)s3)c(=O)c(O)c2C1=O (centres unmarked) [Example 26],7.6
13,CCNC(=O)C1(C)CN(C(C)C)C(=O)c2c(O)c(=O)c(-c3ncc(Cc4ccc(F)cc4F)s3)cn21 (centres unmarked) [Example 27],10
14,CC(C)N1CC(C)(C(=O)N(C)C)n2cc(-c3ncc(Cc4ccc(F)cc4F)s3)c(=O)c(O)c2C1=O (centres unmarked) [Example 28],15
15,CNC(=O)C1(C)CN(C(C)C)C(=O)c2c(O)c(=O)c(-c3ncc(Cc4ccc(F)cc4F)s3)cn21 (centres unmarked) [Example 29],10
16,O=C1c2c(O)c(=O)c(-c3nnc(Cc4ccc(F)cc4F)s3)cn2C2(CCOCC2)CN1C1CC1 [Example 30],9
17,CC(C)NC(=O)C1CN(C(C)C)C(=O)c2c(O)c(=O)c(-c3ncc(Cc4ccc(F)cc4F)s3)cn21 (centres unmarked) [Example 31],8.3
18,CC(C)CNC(=O)C1CN(C(C)C)C(=O)c2c(O)c(=O)c(-c3ncc(Cc4ccc(F)cc4F)s3)cn21 (centres unmarked) [Example 32],7.7
19,CC(C)N1CC(CC(=O)O)n2cc(-c3ncc(Cc4ccc(F)cc4F)s3)c(=O)c(O)c2C1=O (centres unmarked) [Example 33],6.2
20,CNC(=O)CC1CN(C(C)C)C(=O)c2c(O)c(=O)c(-c3ncc(Cc4ccc(F)cc4F)s3)cn21 (centres unmarked) [Example 34],8.2
21,CC(C)N1CC(CC(N)=O)n2cc(-c3ncc(Cc4ccc(F)cc4F)s3)c(=O)c(O)c2C1=O (centres unmarked) [Example 35],6.7
22,CC(C)NC(=O)CC1CN(C(C)C)C(=O)c2c(O)c(=O)c(-c3ncc(Cc4ccc(F)cc4F)s3)cn21 (centres unmarked) [Example 36],13
23,CC(C)N1C(=O)c2c(O)c(=O)c(-c3nnc(Cc4ccc(F)cc4F)s3)cn2CC1CO (centres unmarked) [Example 37],6.3
24,CC(C)N1CC(C)(C(=O)N2CCCCC2)n2cc(-c3ncc(Cc4ccc(F)cc4F)s3)c(=O)c(O)c2C1=O (centres unmarked) [Example 38],12
25,CC(C)N1CC(C)(C(=O)N2CCCC2)n2cc(-c3ncc(Cc4ccc(F)cc4F)s3)c(=O)c(O)c2C1=O (centres unmarked) [Example 39],10
26,CC(C)CNC(=O)CC1CN(C(C)C)C(=O)c2c(O)c(=O)c(-c3ncc(Cc4ccc(F)cc4F)s3)cn21 (centres unmarked) [Example 40],13
27,CC(C)N1CC(CC(=O)N2CCCCC2)n2cc(-c3ncc(Cc4ccc(F)cc4F)s3)c(=O)c(O)c2C1=O (centres unmarked) [Example 41],7.2

row,SMILES,IC50 [nM]
1,COCC1Cn2cc(-c3nnc(Cc4ccc(F)cc4F)s3)c(=O)c(O)c2C(=O)N1C(C)C (centres unmarked) [Example 42],3.4
2,COCC1Cn2cc(-c3nnc(Cc4ccc(F)cc4F)s3)c(=O)c(O)c2C(=O)N1CC(C)C (centres unmarked) [Example 43],4.6
3,COCCOC[C@H]1CN(C(C)C)C(=O)c2c(O)c(=O)c(-c3nnc(Cc4ccc(F)cc4F)s3)cn21 [Example 44],8.1
4,COCCOC[C@H]1CN(CC(C)C)C(=O)c2c(O)c(=O)c(-c3nnc(Cc4ccc(F)cc4F)s3)cn21 [Example 45],11
5,COCCOC[C@@H]1CN(C(C)C)C(=O)c2c(O)c(=O)c(-c3nnc(Cc4ccc(F)cc4F)s3)cn21 [Example 46],11
6,COCCOC[C@@H]1CN(CC(C)C)C(=O)c2c(O)c(=O)c(-c3nnc(Cc4ccc(F)cc4F)s3)cn21 [Example 47],12
7,COCCOC[C@@H]1Cn2cc(-c3nnc(Cc4ccc(F)cc4F)s3)c(=O)c(O)c2C(=O)N1CC(C)C [Example 48],6.9
8,CC(C)N1CC(CC#N)n2cc(-c3ncc(Cc4ccc(F)cc4F)s3)c(=O)c(O)c2C1=O (centres unmarked) [Example 49],5.1
9,CC(C)N1C(=O)c2c(O)c(=O)c(-c3nnc(Cc4ccc(F)cc4F)s3)cn2CC1C(=O)O (centres unmarked) [Example 50],6.4
10,CNC(=O)C1Cn2cc(-c3nnc(Cc4ccc(F)cc4F)s3)c(=O)c(O)c2C(=O)N1C(C)C (centres unmarked) [Example 51],5.7
11,CC(C)N1CC(C)(C(=O)N2CCOCC2)n2cc(-c3ncc(Cc4ccc(F)cc4F)s3)c(=O)c(O)c2C1=O (centres unmarked) [Example 52],13
12,CC(C)N1C(=O)c2c(O)c(=O)c(-c3nnc(Cc4ccc(F)cc4F)s3)cn2CC1C(=O)N(C)C (centres unmarked) [Example 53],10
13,COCCOC[C@@H]1Cn2cc(-c3nnc(Cc4ccc(F)cc4F)s3)c(=O)c(O)c2C(=O)N1C(C)C [Example 54],7.5
14,COCCOC[C@H]1Cn2cc(-c3nnc(Cc4ccc(F)cc4F)s3)c(=O)c(O)c2C(=O)N1CC(C)C [Example 55],21
15,COCCOC[C@H]1CN(C(C)C)C(=O)c2c(O)c(=O)c(-c3ncc(Cc4ccc(F)cc4F)s3)cn21 [Example 56],10
16,COCCOC[C@H]1CN(CC(C)C)C(=O)c2c(O)c(=O)c(-c3ncc(Cc4ccc(F)cc4F)s3)cn21 [Example 57],11
17,COCCOC[C@H]1Cn2cc(-c3ncc(Cc4ccc(F)cc4F)s3)c(=O)c(O)c2C(=O)N1CC(C)C [Example 58],17
18,COCCOC[C@H]1Cn2cc(-c3ncc(Cc4ccc(F)cc4F)s3)c(=O)c(O)c2C(=O)N1C(C)C [Example 59],12
19,COCCOC[C@H]1Cn2cc(-c3nnc(Cc4ccc(F)cc4F)s3)c(=O)c(O)c2C(=O)N1C(C)C [Example 60],17
20,COCC1Cn2cc(-c3ncc(Cc4ccc(F)cc4F)s3)c(=O)c(O)c2C(=O)N1C(C)C (centres unmarked) [Example 61],6.6
21,COCC1Cn2cc(-c3ncc(Cc4ccc(F)cc4F)s3)c(=O)c(O)c2C(=O)N1CC(C)C (centres unmarked) [Example 62],9.2
22,COCC1CN(CC(C)C)C(=O)c2c(O)c(=O)c(-c3nnc(Cc4ccc(F)cc4F)s3)cn21 (centres unmarked) [Example 63],8.3
23,CC(C)N1C(=O)c2c(O)c(=O)c(-c3nnc(Cc4ccc(F)cc4F)s3)cn2CC1C#N (centres unmarked) [Example 64],6.1
24,CC(C)N1CC(CN2C(=O)c3ccccc3C2=O)n2cc(-c3ncc(Cc4ccc(F)cc4F)s3)c(=O)c(O)c2C1=O (centres unmarked) [Example 65],13
25,CC(C)N1CC(CN)n2cc(-c3ncc(Cc4ccc(F)cc4F)s3)c(=O)c(O)c2C1=O (centres unmarked) [Example 66],6.4
26,CC(=O)NCC1CN(C(C)C)C(=O)c2c(O)c(=O)c(-c3ncc(Cc4ccc(F)cc4F)s3)cn21 (centres unmarked) [Example 67],7.6
